Test results taken from patent US20090143279A1 (priority 2007, published 2009).
Read-outs that look alike come from different tables or passages of the source.

Columns and labels:
[1] = system: C2C12 myotubes
[2] = system: mitochondrial membrane potential; format: cell-based, mouse
[3] = system: nuOXPHOS transcripts; format: cell-based, mouse
[4] = system: mtOXPHOS transcripts; format: cell-based, mouse
[5] = system: cellular dehydrogenase activity
[6] = system: cytochrome c; format: cell-based, mouse
[7] = system: OXPHOS gene expression; format: cell-based, mouse
[8] = system: reactive oxygen species; format: cell-based, mouse
[9] = normalized composite Z-score vs mock-treated (DMSO) wells, Conc 20 μM
[10] = composite Z-score vs DMSO wells, Conc 20 μM
[11] = composite Z-score vs DMSO, Conc 20 μM
[12] = 20 μM, composite Z-score vs DMSO
[13] = Conc 13.32 μM, normalized score vs mock-treated (DMSO) wells

## CN[C@@H](Cc1c[nH]c2ccccc12)C(=O)O [abrine]
[1]
  Viability (composite Z-score): 0.206
[2]
  ΔΨm (composite Z-score): −0.332
[3]
  nucOX (composite Z-score): 0.430
[4]
  mitoOX (composite Z-score): 0.383
[5]
  MTT (composite Z-score): −1.203
[6]
  cyt c (composite Z-score): −0.094
[7]
  GE-HTS (composite Z-score): 0.459
[8]
  ROS (composite Z-score): 1.698

## CC1=CC(=O)CC(C)(C)[C@@]1(O)/C=C/C(C)=C\C(=O)O [abscisic acid]
[1]; [9]
  Viability: 0.309
[2]; [9]
  ΔΨm: −0.565
[3]; [9]
  nucOX: 0.509
[4]; [9]
  mitoOX: 0.299
[5]; [9]
  MTT: −1.053
[6]; [9]
  cyt c: 0.179
[7]; [9]
  GE-HTS: 0.469
[8]; [9]
  ROS: −0.476

## CCCC(=O)Nc1ccc(OCC(O)CNC(C)C)c(C(C)=O)c1 (centres unmarked) [acebutolol]
[1]; [10]
  Viability: −0.271
[2]; [10]
  ΔΨm: 0.016
[3]; [10]
  nucOX: −0.591
[4]; [10]
  mitoOX: −0.254
[5]; [10]
  MTT: −0.548
[6]
  cyt c: −0.884
[6]; [10]
  cyt c: 0.214
[7]; [10]
  GE-HTS: −0.511
[8]; [10]
  ROS: 1.061

## CC(=O)Nc1ccc(OC(=O)c2ccccc2O)cc1 [acetaminosalol]
[1]; [10]
  Viability: 0.144
[2]; [10]
  ΔΨm: −0.707
[3]; [10]
  nucOX: 0.145
[4]; [10]
  mitoOX: −0.060
[5]; [10]
  MTT: −0.142
[6]; [10]
  cyt c: 0.465
[7]; [10]
  GE-HTS: 0.083
[8]; [10]
  ROS: 0.308

## COc1cc(C(C)=O)cc(OC)c1O [acetosyringone]
[1]; [11]
  Viability: −0.432
[2]; [11]
  ΔΨm: −0.370
[3]; [11]
  nucOX: −0.040
[4]; [11]
  mitoOX: 0.201
[5]; [11]
  MTT: −1.266
[6]; [11]
  cyt c: 0.310
[7]; [11]
  GE-HTS: 0.029
[8]; [11]
  ROS: 0.269

## CC(=O)Nc1c(I)cc(I)c(C(=O)O)c1I [acetriazoic acid]
[1]; [11]
  Viability: 0.205
[2]; [11]
  ΔΨm: −0.059
[3]; [11]
  nucOX: −0.870
[4]; [11]
  mitoOX: −0.320
[5]; [11]
  MTT: −0.938
[6]; [11]
  cyt c: −1.416
[7]; [11]
  GE-HTS: −0.710
[8]; [11]
  ROS: 1.158

## CC(=O)N[C@@H](CC(C)C)C(=O)O [acetyl-L-leucine]
[1]; [10]
  Viability: −0.465
[2]; [10]
  ΔΨm: −0.575
[3]; [10]
  nucOX: 0.438
[4]; [10]
  mitoOX: 0.088
[5]; [10]
  MTT: −0.804
[6]; [10]
  cyt c: 0.267
[7]; [10]
  GE-HTS: 0.328
[8]; [10]
  ROS: 1.139

## CC(=O)O[C@H](CC(=O)[O-])C[N+](C)(C)C [acetylcarnitine]
[1]; [10]
  Viability: −0.980
[2]; [10]
  ΔΨm: −0.930
[3]; [10]
  nucOX: −1.015
[4]; [10]
  mitoOX: −0.943
[5]; [10]
  MTT: −1.275
[6]; [10]
  cyt c: −0.192
[7]; [10]
  GE-HTS: −1.051
[8]; [10]
  ROS: 0.476

## CC(=O)OCC[N+](C)(C)C [acetylcholine]
[1]; [12]
  Viability: −0.299
[2]; [12]
  ΔΨm: −0.520
[3]; [12]
  nucOX: 0.533
[4]; [12]
  mitoOX: 0.014
[5]; [12]
  MTT: −0.712
[6]; [12]
  cyt c: −0.038
[7]; [12]
  GE-HTS: 0.358
[8]; [12]
  ROS: 0.622

## CC(=O)Oc1ccccc1C(=O)Oc1ccccc1C(=O)O [acetylsalicylsalicylic acid]
[1]; [13]
  Viability (composite Z-score): −0.840
[2]; [13]
  ΔΨm (composite Z-score): −0.808
[3]; [13]
  nucOX (composite Z-score): −0.249
[4]; [13]
  mitoOX (composite Z-score): −0.389
[5]; [13]
  MTT (composite Z-score): −1.621
[6]; [13]
  cyt c (composite Z-score): −0.200
[7]; [13]
  GE-HTS (composite Z-score): −0.301
[8]; [13]
  ROS (composite Z-score): 0.399

## CCN1C[C@]2(COC)[C@H](O)C[C@H](OC)[C@@]34[C@@H]5C[C@@]6(O)[C@H](OC(=O)c7ccccc7)[C@@H]5[C@@](OC(C)=O)([C@@H]([C@H](OC)[C@H]23)[C@@H]14)[C@@H](O)[C@@H]6OC [aconitine]
[1]; [11]
  Viability: 0.132
[2]; [11]
  ΔΨm: −0.073
[3]; [11]
  nucOX: 0.356
[4]; [11]
  mitoOX: −0.198
[5]; [11]
  MTT: −0.584
[6]; [11]
  cyt c: 0.751
[6]; composite Z-score vs mock-treated (DMSO) wells, concentration of each compound in μM
  cyt c: 1.609
[7]; [11]
  GE-HTS: 0.169
[8]; [11]
  ROS: 1.038

## CC[C@@]1(O)C[C@H](O[C@H]2C[C@H](N(C)C)[C@H](O)[C@H](C)O2)c2c(cc3c(c2O)C(=O)c2c(O)cccc2C3=O)[C@H]1C(=O)OC [aklavine]
[1]; [10]
  Viability: −2.971
[2]; [10]
  ΔΨm: −3.626
[3]; [10]
  nucOX: 0.430
[4]; [10]
  mitoOX: 1.063
[5]; [10]
  MTT: −6.213
[6]; [10]
  cyt c: −5.658
[7]; [10]
  GE-HTS: 0.706
[8]; [10]
  ROS: −2.347
